This passage reports T/C results from PubChem BioAssay AID272 (DTP/NCI, 2004).

The assay relates to Lewis lung carcinoma i.m., BDF1 mice, T/C %. Nature of the assay: NCI In Vivo Anticancer Drug Screen. Data for tumor model Lewis Lung Carcinoma (intramuscular) in B6D2F1 (BDF1) mice. The essentials: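 Mice carrying transplantable tumours received test compound. Survival or tumour size was recorded and expressed as the treated-group value (T) divided by the vehicle-treated control-group value (C).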

Where [1] appears, read: endpoint: median survival time, dose: 50.0 mg/kg/injection, schedule: Q01DX011 (ip), vehicle: Klucel (hydroxypropylcellulose) (HPC), higher = longer survival.
Setting [2] is: endpoint: median survival time, dose: 100.0 mg/kg/injection, schedule: Q01DX011 (ip), vehicle: Klucel (hydroxypropylcellulose) (HPC), higher = longer survival.
Where [3] appears, read: endpoint: mean tumor weight (est.), dose: 100.0 mg/kg/injection, schedule: Q01DX011 (ip), vehicle: saline with Tween-80, higher = larger tumour.
Setting [4] is: endpoint: median survival time, dose: 100.0 mg/kg/injection, schedule: Q01DX011 (ip), vehicle: saline with Tween-80, higher = longer survival.
The mark [5] stands for this setting: endpoint: mean tumor weight (est.), dose: 12.5 mg/kg/injection, schedule: Q01DX011 (ip), vehicle: saline with Tween-80, higher = larger tumour.
Setting [6] is: endpoint: mean tumor weight (est.), dose: 25.0 mg/kg/injection, schedule: Q01DX011 (ip), vehicle: saline with Tween-80, higher = larger tumour.
Setting [7] is: endpoint: median survival time, dose: 12.5 mg/kg/injection, schedule: Q01DX011 (ip), vehicle: saline with Tween-80, higher = longer survival.
The mark [8] stands for this setting: endpoint: median survival time, dose: 25.0 mg/kg/injection, schedule: Q01DX011 (ip), vehicle: saline with Tween-80, higher = longer survival.

Where “and” joins values, the source holds several entries; their conditions need not be identical. Equal entries are not always repeated. Results filed as inconclusive are left out.

Turning to `CC(=O)O[C@]1(C(C)=O)CC[C@H]2[C@@H]3C[C@H](C)C4=CC(=O)CC[C@]4(C)[C@H]3CC[C@@]21C`, the T/C is, setting by setting: (endpoint: median survival time, dose: 50.0 mg/kg/injection, schedule: Q01DX009 (ip), vehicle: Klucel (hydroxypropylcellulose) (HPC), higher = longer survival) 90 % of control; under setting [1], 104 % of control and 109 % of control; (endpoint: median survival time, dose: 100.0 mg/kg/injection, schedule: Q01DX009 (ip), vehicle: Klucel (hydroxypropylcellulose) (HPC), higher = longer survival) 107 % of control; under setting [2], 104 % of control; (endpoint: median survival time, dose: 200.0 mg/kg/injection, schedule: Q01DX009 (ip), vehicle: Klucel (hydroxypropylcellulose) (HPC), higher = longer survival) 110 % of control; (endpoint: median survival time, dose: 200.0 mg/kg/injection, schedule: Q01DX011 (ip), vehicle: Klucel (hydroxypropylcellulose) (HPC), higher = longer survival) 107 % of control and 119 % of control. In addition, the T/C is 114 % of control (endpoint: median survival time, dose: 400.0 mg/kg/injection, schedule: Q01DX009 (ip), vehicle: Klucel (hydroxypropylcellulose) (HPC), higher = longer survival); 109 % of control and 123 % of control (endpoint: median survival time, dose: 400.0 mg/kg/injection, schedule: Q01DX011 (ip), vehicle: Klucel (hydroxypropylcellulose) (HPC), higher = longer survival); 90 % of control (endpoint: median survival time, dose: 800.0 mg/kg/injection, schedule: Q01DX009 (ip), vehicle: Klucel (hydroxypropylcellulose) (HPC), higher = longer survival).
For the molecule `COc1ccc(C(=O)c2cc(OC)c(OC)c(OC)c2)cc1OC`, the T/C is, setting by setting: under setting [3], 34 % of control; (endpoint: mean tumor weight (est.), dose: 200.0 mg/kg/injection, schedule: Q01DX011 (ip), vehicle: saline with Tween-80, higher = larger tumour) 51 % of control; (endpoint: mean tumor weight (est.), dose: 400.0 mg/kg/injection, schedule: Q01DX011 (ip), vehicle: saline with Tween-80, higher = larger tumour) 43 % of control; under setting [4], 93 % of control; (endpoint: median survival time, dose: 200.0 mg/kg/injection, schedule: Q01DX011 (ip), vehicle: saline with Tween-80, higher = longer survival) 89 % of control; (endpoint: median survival time, dose: 400.0 mg/kg/injection, schedule: Q01DX011 (ip), vehicle: saline with Tween-80, higher = longer survival) 108 % of control.
Regarding `O=C1CN=C(c2ccc[nH]2)c2cc(Cl)ccc2N1`, the T/C is 74 % of control (endpoint: mean tumor weight, dose: 6.25 mg/kg/injection, schedule: Q01DX011 (ip), vehicle: Klucel (hydroxypropylcellulose) (HPC), higher = larger tumour); 111 % of control (endpoint: mean tumor weight, dose: 12.5 mg/kg/injection, schedule: Q01DX011 (ip), vehicle: Klucel (hydroxypropylcellulose) (HPC), higher = larger tumour); 82 % of control (endpoint: mean tumor weight, dose: 25.0 mg/kg/injection, schedule: Q01DX011 (ip), vehicle: Klucel (hydroxypropylcellulose) (HPC), higher = larger tumour); 96 % of control (endpoint: mean tumor weight, dose: 50.0 mg/kg/injection, schedule: Q01DX011 (ip), vehicle: Klucel (hydroxypropylcellulose) (HPC), higher = larger tumour); 95 % of control (endpoint: mean tumor weight, dose: 100.0 mg/kg/injection, schedule: Q01DX011 (ip), vehicle: Klucel (hydroxypropylcellulose) (HPC), higher = larger tumour); 97 % of control (endpoint: median survival time, dose: 6.25 mg/kg/injection, schedule: Q01DX011 (ip), vehicle: Klucel (hydroxypropylcellulose) (HPC), higher = longer survival). Besides, the T/C by setting is: (endpoint: median survival time, dose: 12.5 mg/kg/injection, schedule: Q01DX011 (ip), vehicle: Klucel (hydroxypropylcellulose) (HPC), higher = longer survival) 100 % of control; (endpoint: median survival time, dose: 25.0 mg/kg/injection, schedule: Q01DX011 (ip), vehicle: Klucel (hydroxypropylcellulose) (HPC), higher = longer survival) 88 % of control and 111 % of control; under setting [1], 102 % of control; under setting [2], 100 % of control.
With `NCC(=O)c1ccc(O)c(O)c1`, the T/C was 76 % of control (endpoint: mean tumor weight (est.), dose: 100.0 mg/kg/injection, schedule: Q01DX011 (ip), vehicle: saline, higher = larger tumour); 58 % of control (endpoint: mean tumor weight (est.), dose: 200.0 mg/kg/injection, schedule: Q01DX011 (ip), vehicle: saline, higher = larger tumour); 96 % of control (endpoint: median survival time, dose: 200.0 mg/kg/injection, schedule: Q01DX011 (ip), vehicle: saline, higher = longer survival).
With `COc1cc(C[C@H]2c3cc(OC)c(OC)cc3CCN2C)c(Oc2cc3c(cc2OC)-c2c(OC)c(OC)cc4c2[C@H](C3)N(C)CC4)cc1OC`, the T/C was 104 % of control (endpoint: mean tumor weight, dose: 12.5 mg/kg/injection, schedule: Q01DX011 (ip), vehicle: other, higher = larger tumour); 100 % of control (endpoint: mean tumor weight, dose: 25.0 mg/kg/injection, schedule: Q01DX011 (ip), vehicle: other, higher = larger tumour); 93 % of control (endpoint: mean tumor weight, dose: 50.0 mg/kg/injection, schedule: Q01DX011 (ip), vehicle: other, higher = larger tumour); 105 % of control (endpoint: median survival time, dose: 12.5 mg/kg/injection, schedule: Q01DX011 (ip), vehicle: other, higher = longer survival); 108 % of control (endpoint: median survival time, dose: 25.0 mg/kg/injection, schedule: Q01DX011 (ip), vehicle: other, higher = longer survival); 117 % of control (endpoint: median survival time, dose: 50.0 mg/kg/injection, schedule: Q01DX011 (ip), vehicle: other, higher = longer survival).
With `CCN(CC)Cc1cc(Nc2c3ccccc3nc3cc(Cl)ccc23)ccc1O`, the T/C (endpoint: mean tumor weight (est.), dose: 35.0 mg/kg/injection, schedule: Q01DX011 (ip), vehicle: saline, higher = larger tumour) was 79 % of control.
With `Nc1ncnc2c1ncn2Cc1ccccc1`, the T/C runs as follows: under setting [5], 101 % of control; under setting [6], 102 % of control; (endpoint: mean tumor weight (est.), dose: 50.0 mg/kg/injection, schedule: Q01DX011 (ip), vehicle: saline with Tween-80, higher = larger tumour) 76 % of control; under setting [3], 67 % of control; under setting [7], 89 % of control; under setting [8], 100 % of control. Further, the T/C runs as follows: (endpoint: median survival time, dose: 50.0 mg/kg/injection, schedule: Q01DX011 (ip), vehicle: saline with Tween-80, higher = longer survival) 93 % of control; under setting [4], 97 % of control.
For `O=[N+]([O-])c1cc(S(=O)(=O)OCC2CO2)ccc1Cl` (centres undefined), the T/C runs as follows: (endpoint: mean tumor weight (est.), dose: 6.25 mg/kg/injection, schedule: Q01DX011 (ip), vehicle: saline with Tween-80, higher = larger tumour) 66 % of control; under setting [5], 70 % of control; under setting [6], 47 % of control; (endpoint: median survival time, dose: 6.25 mg/kg/injection, schedule: Q01DX011 (ip), vehicle: saline with Tween-80, higher = longer survival) 100 % of control; under setting [7], 90 % of control; under setting [8], 101 % of control.
